According to US9487489B2, “Halogen-substituted pyrazole derivatives as pest-control agents” (BAYER CROPSCIENCE AKTIENGESELLSCHAFT, priority 2013, dated 2016):

Experiments:
[1] = logP determination by HPLC on a reversed-phase column (C18), EEC Directive 79/831 Annex V.A8; type: physicochemical
How it was run: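 Per EEC 79/831 Annex V.A8, values derive from HPLC retention at 2.0 ml/min and 55° C on a 50*4.6 C18 column. The 10→95% acetonitrile gradient (0.1%/0.09% formic acid) lasted 4.25 min plus a 1.25 min hold; mass detection was by MSD.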

[2] = tested on: engorged adult female cattle ticks (Boophilus microplus); experiment: Boophilus microplus injection test (BOOPMI Inj); type: in vivo; conditions: application rate 20 μg/animal; injection into abdomen; assessed after 7 days
Method: C. Boophilus microplus-injection Test (BOOPMI Inj)
(§1) Solvent: dimethyl sulphoxide
To produce a suitable preparation of active compound, 10 mg of active compound are mixed with 0.5 ml of solvent, and the concentrate is diluted with solvent to the desired concentration.
1 μl of the active compound solution is injected into the abdomen of 5 engorged adult female cattle ticks (Boophilus microplus). The animals are transferred into dishes and kept in a climate-controlled room.
The activity is assessed after 7 days by laying of fertile eggs. Eggs whose fertility is not visible from the outside are stored in a climate-controlled cabinet until the larvae hatch after about 42 days. An efficacy of 100% means that none of the ticks has laid any fertile eggs; 0% means that all eggs are fertile.

[3] = tested on: adult cat fleas (Ctenocephalides felis); experiment: Ctenocephalides felis oral test (CTECFE); type: in vivo; conditions: application rate 100 ppm in citrated cattle blood; after 2 days
Method: D. Ctenocephalides felis-oral Test (CTECFE)
as §1
To produce a suitable preparation of active compound, 10 mg of active compound are mixed with 0.5 ml of dimethyl sulphoxide. Dilution with citrated cattle blood gives the desired concentration.
About 20 unfed adult cat fleas (Ctenocephalides felis) are placed into a chamber which is closed at the top and bottom with gauze. A metal cylinder whose bottom end is closed with a parafilm is placed onto the chamber. The cylinder contains the blood/active ingredient preparation, which can be imbibed by the fleas through the parafilm membrane.
After 2 days, the kill in % is determined 100% means that all of the fleas have been killed; 0% means that none of the fleas have been killed.

[4] = tested on: L1 larvae of the Australian sheep blowfly (Lucilia cuprina); experiment: Lucilia cuprina test (LUCICU); type: in vivo; conditions: application rate 100 ppm; after 2 days
Method: E. Lucilia cuprina Test (LUCICU)
as §1
To produce a suitable preparation of active compound, 10 mg of active compound are mixed with 0.5 ml of dimethyl sulphoxide, and the concentrate is diluted with water to the desired concentration.
About 20 L1 larvae of the Australian sheep blowfly (Lucilia cuprina) are transferred into a test vessel containing minced horsemeat and the active compound preparation of the desired concentration.
After 2 days, the kill in % is determined 100% means that all of the larvae have been killed; 0% means that none of the larvae have been killed.

[5] = tested on: larvae of the mustard beetle (Phaedon cochleariae); experiment: Phaedon cochleariae spray test (PHAECO); type: in vivo; conditions: Chinese cabbage leaf discs, after 7 days
How it was run: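 Kill of mustard beetle larvae is read as % mortality 7 days after spraying. Spray liquid: active compound in acetone plus dimethylformamide, brought up with water holding 1000 ppm alkylaryl polyglycol ether emulsifier and diluted further in emulsifier-water.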

[6] = tested on: caterpillars of the armyworm (Spodoptera frugiperda); experiment: Spodoptera frugiperda spray test (SPODFR); type: in vivo; conditions: maize leaf discs, after 7 days
Method: I. Spodoptera frugiperda-spray Test (SPODFR)
(§2) Solvent: 78.0 parts by weight of acetone
(§3) • 1.5 parts by weight of dimethylformamide Emulsifier: alkylaryl polyglycol ether
(§4) To produce a suitable preparation of active compound, 1 part by weight of active compound is dissolved using the stated parts by weight of solvent and made up with water comprising an emulsifier concentration of 1000 ppm until the desired concentration is reached. To produce further test concentrations, the preparation is diluted with emulsifier-containing water.
Leaf discs of maize (Zea mays) are sprayed with an active compound preparation of the desired concentration and, after drying, populated with caterpillars of the armyworm (Spodoptera frugiperda).
After 7 days, the efficacy in % is determined. 100% means that all of the caterpillars have been killed; 0% means that none of the caterpillars have been killed.

[7] = tested on: greenhouse red spider mite (Tetranychus urticae); experiment: Tetranychus urticae spray test, OP-resistant (TETRUR); type: in vivo; conditions: bean leaf discs, after 6 days
Method: J. Tetranychus urticae-spray Test, OP-Resistant (TETRUR)
as §2, §3, §4
Discs of bean leaves (Phaseolus vulgaris) which are infested by all stages of the greenhouse red spider mite (Tetranychus urticae) are sprayed with an active compound preparation of the desired concentration.
After 6 days, the efficacy in % is determined. 100% means that all of the spider mites have been killed; 0% means that none of the spider mites have been killed.

[8] = HPLC on reversed-phase column (C18), acetonitrile/water with formic acid, EEC Directive 79/831 Annex V.A8

Row | SMILES | logP [1, 8] | efficacy (laying of fertile eggs) [2] | efficacy (kill in %) [3] | efficacy (kill in %) [4] | efficacy in % ([5]; application rate 100 g/ha) | efficacy in % ([5]; application rate 500 g/ha) | efficacy in % ([6]; application rate 500 g/ha) | efficacy in % ([7]; application rate 100 g/ha) | efficacy in % ([7]; application rate 500 g/ha) | logP ([1]; HPLC, reversed-phase C18, acetonitrile (0.1% formic acid)/water (0.09% formic acid) gradient) | efficacy in % ([6]; application rate 100 g/ha)
1 | Cn1nc(C(F)(F)C(F)(F)F)c(C(F)(F)F)c1-n1cc(-c2ccc(Cl)c(C(=O)NC3CC3)c2)c(C(F)(F)F)n1 [Ic-4] | 4.51 | 100% | 100% | 100% | – | – | – | – | – | – | –
2 | O=C(NC1CC1)c1cc(-c2cnn(-c3c(C(F)(F)F)c(C(F)(F)C(F)(F)F)nn3-c3ccc([N+](=O)[O-])cc3)c2)ccc1Cl [Ic-8] | 4.54 | 100% | 100% | 100% | – | – | – | – | – | – | –
3 | Cn1nc(C(F)(F)C(F)(F)F)c(C(F)(F)F)c1-n1cc(-c2cccc(C(N)=O)c2)cn1 [Ic-35] | 3.1 | 80% | 100% | 100% | 100% | – | – | – | – | – | –
4 | Cn1nc(C(F)(F)C(F)(F)F)c(C(F)(F)F)c1-n1cc(-c2cc(C(=O)NC3(C#N)CC3)ccc2F)cn1 [Ic-42] | – | 100% | 100% | 100% | – | 100% | 83% | – | – | – | –
5 | Cn1nc(C(F)(F)F)c(C#N)c1-n1cc(-c2ccc(Cl)c(C(=O)NC3(C#N)CC3)c2)cn1 [Ic-53] | 2.92 | 100% | 100% | 100% | 100% | – | – | – | – | – | –
6 | Cc1cc(C(=O)NC2(C#N)CC2)cc(-c2cnn(-c3c(C(F)(F)F)c(C(F)(F)C(F)(F)F)nn3C)c2)c1 [Ic-56] | – | 100% | 100% | 100% | – | 100% | – | 90% | – | – | –
7 | COc1cc(C(=O)NC2(C#N)CC2)cc(-c2cnn(-c3c(C(F)(F)F)c(C(F)(F)C(F)(F)F)nn3C)c2)c1 [Ic-63] | – | 100% | 95% | 100% | – | 100% | – | 100% | – | – | –
8 | Cn1nc(C(F)(F)C(F)(F)F)c(C(F)(F)F)c1-n1cc(-c2cc(OC(F)(F)F)cc(C(=O)NC3CC3)c2)cn1 [Ic-74] | – | 100% | 100% | 100% | – | 100% | 100% | – | – | – | –
9 | Cn1nc(C(F)(F)C(F)(F)F)c(C(F)(F)F)c1-n1cc(-c2cc(OC(F)(F)F)cc(C(=O)NC3(C#N)CC3)c2)cn1 [Ic-75] | – | 100% | 100% | 100% | – | 100% | 100% | – | – | – | –
10 | Cn1nc(C(F)(F)C(F)(F)F)c(C(F)(F)F)c1-n1cc(-c2cc(Cl)nc(C(=O)NC3(C#N)CC3)c2)cn1 [Ic-89] | – | 100% | 90% | 100% | – | 100% | 83% | – | – | – | –
11 | CC(C)C(C)NC(=O)c1cc(-c2cnn(-c3c(C(F)(F)F)c(C(F)(F)C(F)(F)F)nn3C)c2)ccc1Cl (centres unmarked) [Ic-137] | – | 100% | 100% | 100% | – | 83% | – | – | 100% | – | –
12 | Cn1nc(C(F)(F)C(F)(F)F)c(C(F)(F)F)c1-n1cc(-c2ccc(Cl)c(C(=O)Nc3cc[nH]n3)c2)cn1 [Ic-150] | – | 100% | 100% | 100% | – | 100% | 100% | – | 100% | – | –
13 | Cn1nc(C(F)(F)C(F)(F)F)c(C(F)(F)F)c1-n1ccc(-c2ccc(Cl)c(C(=O)NC3CC3)c2)n1 [Id-2] | – | 100% | 100% | 95% | 100% | – | – | – | – | 3.97 | 100%
